Data as given in patent publication US20130209550A1, “Anti-Viral Azide Containing Compounds” (LIFE TECHNOLOGIES CORPORATION, priority 2010, published 2013).

Legend:
HIV = experiment: Infectivity of azide-labeled HIV, luciferase reporter assay on TZM/BI reporter cell line; assay type: cell-based; conditions: HIVNL4-3 labeled in CEMx174 cells; virus incubated 12 hours on TZM/BI; single cycle replication system; two luciferase reagents; FIGS. 3 and 4
Method: CEMx174 cells were transfected with HIVNL4-3 in a T-150 flask and the virus production was monitored by reverse transcriptase activity until peak virus production occurred (usually 7 to 9 days post transfection). Prior to transfection, the CEMx174 cells were spiked with the following azide-modified biomolecules: 15-azidopentadecanoic acid (50-100 μM), 12-azidododecanoic acid (50-100 μM), tetraacetylated N-azidoacetylgalactosamine (20-40 μM), and tetraacetylated N-azidoacetyl-D-mannosamine (20-40 μM).
Labeled virus was also obtained from the transfected cells. More specifically, virus-containing supernatants were collected and virus was purified through 20% sucrose as previously described (Graham, D. R. et al., Proteomics 2008, 8:4919-30). The purified virus was then mixed with the CLICK-IT® detection reagent, tetramethylrhodamine (TAMRA) alkyne and the CLICK-IT® Protein Reaction Buffer Kit (Invitrogen, Carlsbad, Calif.). Virus samples were run on a one-dimensional gel to reveal azide-labeled viral proteins (FIG. 2). […]
To examine the effect of the azide-modified biomolecules on the innate biology of the virus, the azide-labeled virus from the transfected cells was isolated and tested in cell infection studies. […] Viral infectivity was determined by measuring cellular luciferase activities with two different luciferase reagents.

[1] = system: Nuclear-GFP BacMam 2.0 Virus (baculovirus); experiment: Infectivity of PTM analog-labeled Nuclear-GFP BacMam baculovirus in U2-OS cells; assay type: cell-based; conditions: virus labeled in Sf9 cells with 50 uM analog; U2-OS cells incubated overnight with labeled virus; FIG. 5
From the text: Inhibition of insect cell baculovirus infectivity with azido fatty acid analogs: The BacMam system uses a modified insect cell virus (baculovirus) as a vehicle to efficiently deliver and express genes in mammalian cells. A Nuclear-GFP BacMam 2.0 expression system (Invitrogen, C10602) was used as a model to determine if PTM analog labeling of the virus would affect mammalian cell infectivity. Viruses were labeled with various PTM analogs and used to infect mammalian cells. Infectivity was determined by the expression of nuclear-GFP, as viral entry into the cell is required for expression of GFP protein, […]
Characterization of BacMam virus production: To verify, quantitate, and normalize the amount of enriched viruses obtained from insect cell supernatants, samples of each virus were lysed in SDS sample preparation buffer (SPB), sonicated with a probe tip sonicator, and heated at 90C to completely dissolve the viral proteins. Viral protein concentrations of the lysates were then determined. […]
Mammalian cell infection protocol: To determine if the PTM analog-labeled viruses retain the ability to infect mammalian cells, 50,000 U2-OS cells (human osteosarcoma cell line) were plated onto a 6 well-chamber glass bottom plate. […] The following day cells were imaged on AMG EVOS fluorescence microscope at 10× or 20× magnification using both white light and GFP filters (FIG. 5). […]

| SMILES | impact on the infectivity of the virus (cellular luciferase activity) (HIV) | nuclear-GFP expression (viral entry) [1] |
| --- | --- | --- |
| [N-]=[N+]=NCCCCCCCCCCCC(=O)O [12-azidododecanoic acid] | profound impact on the infectivity of the virus | no nuclear-GFP expression |
| [N-]=[N+]=NCCCCCCCCCCCCCCC(=O)O [15-azidopentadecanoic acid] |  | no nuclear-GFP expression |
